From patent US6407116B1, “Nitrogenous fused-ring compounds, process for the preparation of the same, and drugs” (Takeda Chemical Industries, Inc., priority 1997, dated 2002)
Counter-ions that a name gives are not always drawn.

Legend:
guinea-pig eosinophils = experiment: Chemotaxis inhibition assay: LTB4-induced chemotaxis in guinea-pig eosinophils; format: cell-based; details: test substance 1×10^−5 M, LTB4 10^−8 M, 2 hours; for inhibition at 10 µM: Cavia porcellus, Eosinophil
Description: 1) Guinea-pig Eosinophil Preparation
Male Hartley guinea-pigs received 2 ml of equine serum (Bio-Whittaker, Inc) intraperitoneally once a week for successive 8 weeks. 48 hours after the last administration, 75 ml of physiological saline was injected into the peritoneal cavity, and the fluid was recovered and centrifuged at 400 G for 5 minutes. […] Erythrocytes in the isolated cell pellet, if any, were removed by hypotonic treatment (suspended in water for 30 seconds).
2) Chemotaxis Inhibition Assay
600 μl of LTB4 suspended in Hanks-Hepes-HSA (final concentration of 10^−8 M, Cascade Biochemical Ltd.) was placed in the lower compartment of a 24-well plate and kept at 37° C. for 30 minutes in a CO2 gas incubator. After mounting a Chemotaxicell (polycarbonate membrane, pore size 3 μm, thickness 10 μm), which served as an upper compartment, on the 24-well plate described above, 200 μl of eosinophil suspension (5×10^6 cells/ml), which had been incubated at 37° C. for 15 minutes in a thermostat chamber, was added to the upper compartment. After allowing to react for 2 hours in the CO2 gas incubator, the Chemotaxicell was removed, and 60 μl of 2% (w/v) EDTA solution in physiological saline was added to the lower compartment. After cooling on ice, the cells which underwent the chemotaxis into the lower compartment were counted using a blood cell counter (Coulter Counter (trade name)). In the procedure described above, the test substance was dissolved in N,N-dimethylformamide (DMF) and added to the upper and lower compartments at the final concentration of 10^−5 M.
% Chemotaxis inhibition=[…] [Equation 2]
The results are shown in [Table 2].

[1] = system: histamine-induced dermal vascular hyperpermeability; experiment: Effect on histamine-induced dermal vascular hyperpermeability in guinea pigs; format: in vivo, guinea pig; details: 3 mg/kg oral administration, 1 hour before intradermal histamine, male Hartley guinea pigs; for inhibition in vivo at 3 mg/kg: Cavia porcellus
Description: Effect on Histamine-induced Dermal Vascular Hyperpermeability in Guinea Pigs
Male Hartley guinea pigs (weighing about 500 g) were used. […] After 30 minutes, the animal was hit on its head to make it unconscious, and cut at its neck to sacrifice by exsanguination. The dorsal skin was peeled and examined for the long and short diameters (mm) of each blue spot which were then multiplied to give a product, which was averaged to give a vascular permeability index. Each substance was suspended in 5% gum arabic solution, and given orally in the volume of 0.2 ml/100 g body weight 1 hour before histamine administration. Control animals received the same volume of 5% gum arabic solution. A % inhibition of this reaction was calculated according to [Equation 1].
% Inhibition of histamine-induced dermal vascular hyperpermeability=100×(1-vascular permeability index in treatment group/vascular permeability index in control group) [Equation 1]

Cc1ccc2c(c1)c(=O)[nH]c(=O)n2CCCCN1CCC(OC(c2ccccc2)c2ccccc2)CC1 [Example 13, 2,4-Dioxo-1-[4-(4-diphenylmethoxypiperidino)butyl]-6-methyl-1,2,3,4-tetrahydroquinazoline]
inhibition at 10 µM (guinea-pig eosinophils): 66%
melting point: 180 to 182 °C

CCOC(=O)CCNC(=O)Cn1c(=O)c2ccccc2n(CCCCN2CCC(OC(c3ccccc3)c3ccccc3)CC2)c1=O.Cl [Example 111, 2,4-Dioxo-1-[4-(4-diphenylmethoxypiperidino)butyl]-N-(2-ethoxycarbonylethyl)-1,2,3,4-tetrahydroquinazoline-3-acetamide hydrochloride]
inhibition at 10 µM (guinea-pig eosinophils): 80%
melting point: 123 to 124 °C

CCOC(=O)C(C)(C)n1c(=O)c2cc(Cl)ccc2n(CCCCN2CCC(OC(c3ccccc3)c3ccccc3)CC2)c1=O [Example 35, Ethyl 2-[6-chloro-1-[4-(4-diphenylmethoxypiperidino)butyl]-2,4-dioxo-1,2,3,4-tetrahydroquinazolin-3-yl]isobutyrate hydrochloride]
inhibition in vivo at 3 mg/kg [1]: 87%

O=c1[nH]c(=O)n(CCCCN2CCC(OC(c3ccccc3)c3ccccc3)CC2)c2ccc(Cl)cc12 [Example 10, 6-Chloro-2,4-dioxo-1-[4-(4-diphenylmethoxypiperidino)butyl]-1,2,3,4-tetrahydroquinazoline]
inhibition at 10 µM (guinea-pig eosinophils): 50%
melting point: 209 to 210 °C

Cl.O=c1[nH]c(=O)n(CCCN2CCC(OC(c3ccccc3)c3ccccc3)CC2)c2ncccc12 [Example 6, 2,4-Dioxo-1-[3-(4-diphenylmethoxypiperidino)propyl]-1,2,3,4-tetrahydropyrido[2,3-d]pyrimidine hydrochloride]
inhibition at 10 µM (guinea-pig eosinophils): 67%
melting point: 131 to 133 °C

N-(2-Carboxylethyl)-carboxylmethyl-2,4-dioxo-1-[4-(4-diphenylmethoxypiperidino)butyl]-N-methyl-1,2,3,4-tetrahydroquinazoline-3-acetamide [Example 115]
Inhibition (%) of LTB4-induced chemotaxis (guinea-pig eosinophils): 56%

O=C(O)CCCCn1c(=O)c2cc(F)ccc2n(CCCCN2CCC(OC(c3ccccc3)c3ccccc3)CC2)c1=O [Example 101, 2,4-Dioxo-1-[4-(4-diphenylmethoxypiperidino)butyl]-6-fluoro-1,2,3,4-tetrahydroquinazoline-3-valeric acid]
inhibition at 10 µM (guinea-pig eosinophils): 50%

COc1ccc(Cn2c(=O)c3ccccc3n(CCCCN3CCC(OC(c4ccccc4)c4ccccc4)CC3)c2=O)cc1 [Example 26, 2,4-Dioxo-1-[4-(4-diphenylmethoxypiperidino)butyl]-3-(4-methoxybenzyl)-1,2,3,4-tetrahydroquinazoline]
inhibition at 10 µM (guinea-pig eosinophils): 50%
melting point: 99 to 100 °C

CCOC(=O)CN(C)C(=O)Cn1c(=O)c2ccccc2n(CCCCN2CCC(OC(c3ccccc3)c3ccccc3)CC2)c1=O.Cl [Example 110, 2,4-Dioxo-1-[4-(4-diphenylmethoxypiperidino)butyl]-N-ethoxycarbonylmethyl-N-methyl-1,2,3,4-tetrahydroquinazoline-3-acetamide hydrochloride]
inhibition at 10 µM (guinea-pig eosinophils): 122%
melting point: 170 to 172 °C

O=C(O)CCCCCn1c(=O)c2ccccc2n(CCCCN2CCC(OC(c3ccccc3)c3ccccc3)CC2)c1=O [Example 98, 2,4-Dioxo-1-[4-(4-diphenylmethoxypiperidino)butyl]-1,2,3,4-tetrahydroquinazoline-3-hexanoic acid]
inhibition at 10 µM (guinea-pig eosinophils): 50%
melting point: 155 to 157 °C

CN(CCc1ccccc1)C(=O)Cn1c(=O)c2ccccc2n(CCCCN2CCC(OC(c3ccccc3)c3ccccc3)CC2)c1=O.Cl [Example 56, 2,4-Dioxo-1-[4-(4-diphenylmethoxypiperidino)butyl]-N-methyl-N-(2-phenethyl)-1,2,3,4-tetrahydroquinazoline-3-acetamide hydrochloride]
Inhibition (%) of LTB4-induced chemotaxis (guinea-pig eosinophils): 73%

CC(C)(C(=O)O)n1c(=O)c2cc(F)c(F)cc2n(CCCCN2CCC(OC(c3ccccc3)c3ccccc3)CC2)c1=O [Example 125, 2-[2,4-Dioxo-1-[4-(4-diphenylmethoxypiperidino)butyl]-6,7-difluoro-1,2,3,4-tetrahydroquinazolin-3-yl]isobutyric acid hydrochloride]
inhibition in vivo at 3 mg/kg [1]: 81%

O=c1nc2n(CCCCN3CCC(OC(c4ccccc4)c4ccccc4)CC3)ccnc-2c(=O)[nH]1 [Example 8, 2,4-Dioxo-8-[4-(4-diphenylmethoxypiperidino)butyl]-1,2,3,4-tetrahydropteridine]
Inhibition of histamine-induced dermal vascular hyperpermeability (%) [1]: 92%

O=C(O)CNC(=O)CCn1c(=O)c2ccccc2n(CCCCN2CCC(OC(c3ccccc3)c3ccccc3)CC2)c1=O [Example 116, N-Carboxylmethyl-2,4-dioxo-1-[4-(4-diphenylmethoxypiperidino)butyl]-1,2,3,4-tetrahydroquinazoline-3-propionamide hydrochloride]
inhibition at 10 µM (guinea-pig eosinophils): 52%

CC(C)(C)n1c(=O)c2ccccc2n(CCCCN2CCC(OC(c3ccccc3)c3ccccc3)CC2)c1=O.Cl [Example 22, 3-(1,1-Dimethylethyl)-2,4-dioxo-1-[4-(4-diphenylmethoxypiperidino)butyl]-1,2,3,4-tetrahydroquinazoline hydrochloride]
inhibition at 10 µM (guinea-pig eosinophils): 72%
melting point: 229 to 231 °C

COC(=O)CNC(=O)Cn1c(=O)c2ccccc2n(CCCCN2CCC(OC(c3ccccc3)c3ccccc3)CC2)c1=O [Example 109, 2,4-Dioxo-1-[4-(4-diphenylmethoxypiperidino)butyl]-N-methoxycarbonylmethyl-1,2,3,4-tetrahydroquinazoline-3-acetamide hydrochloride]
inhibition at 10 µM (guinea-pig eosinophils): 55%

CCOC(=O)CCCCn1c(=O)c2ccccc2n(CCCCN2CCC(OC(c3ccccc3)c3ccccc3)CC2)c1=O [Example 94, Ethyl 2,4-dioxo-1-[4-(4-diphenylmethoxypiperidino)butyl]-1,2,3,4-tetrahydroquinazoline-3-valerate hydrochloride]
inhibition in vivo at 3 mg/kg [1]: 83%

COC(=O)COC(=O)Cn1c(=O)c2ccccc2n(CCCCN2CCC(OC(c3ccccc3)c3ccccc3)CC2)c1=O [Example 69, Methoxycarbonylmethyl 2,4-dioxo-1-[4-(4-diphenylmethoxypiperidino)butyl]-1,2,3,4-tetrahydroquinazoline-3-acetate hydrochloride]
inhibition at 10 µM (guinea-pig eosinophils): 96%

O=C(O)CCCn1c(=O)c2ccccc2n(CCCCN2CCC(OC(c3ccccc3)c3ccccc3)CC2)c1=O [Example 53, 2,4-Dioxo-1-[4-(4-diphenylmethoxypiperidino)butyl]-1,2,3,4-tetrahydroquinazoline-3-butyric acid]
inhibition in vivo at 3 mg/kg [1]: 90%

CC(=O)OCC(=O)Nc1ccc2c(c1)c(=O)[nH]c(=O)n2CCCCN1CCC(OC(c2ccccc2)c2ccccc2)CC1 [Example 46, 6-Acetoxyacetamide-2,4-dioxo-1-[4-(4-diphenylmethoxypiperidino)butyl]-1,2,3,4-tetrahydroquinazoline]
Inhibition (%) of LTB4-induced chemotaxis (guinea-pig eosinophils): 52%

COC(=O)C1(n2c(=O)c3ccccc3n(CCCCN3CCC(OC(c4ccccc4)c4ccccc4)CC3)c2=O)CCCCC1 [Example 97, Methyl 1-[2,4-dioxo-1-[4-(4-diphenylmethoxypiperidino)butyl]-1,2,3,4-tetrahydroquinazolin-3-yl]-1-cyclohexylcarboxylate hydrochloride]
inhibition at 10 µM (guinea-pig eosinophils): 62%

O=c1c2ccccc2n(CCCCN2CCC(OC(c3ccccc3)c3ccccc3)CC2)c(=O)n1CCO [Example 55, 2,4-Dioxo-1-[4-(4-diphenylmethoxypiperidino)butyl]-3-(2-hydroxyethyl)-1,2,3,4-tetrahydroquinazoline]
inhibition at 10 µM (guinea-pig eosinophils): 64%
melting point: 145 to 150 °C

CC(C)(C(=O)O)n1c(=O)c2cc(F)ccc2n(CCCCN2CCC(OC(c3ccccc3)c3ccccc3)CC2)c1=O [Example 124, 2-[2,4-Dioxo-1-[4-(4-diphenylmethoxypiperidino)butyl]-6-fluoro-1,2,3,4-tetrahydroquinazolin-3-yl]isobutyric acid hydrochloride]
inhibition in vivo at 3 mg/kg [1]: 90%

COC(=O)Cc1ccc2c(c1)c(=O)[nH]c(=O)n2CCCCN1CCC(OC(c2ccccc2)c2ccccc2)CC1 [Example 86, Methyl 2,4-dioxo-1-[4-(4-diphenylmethoxypiperidino)butyl]-1,2,3,4-tetrahydroquinazoline-6-acetate]
inhibition at 10 µM (guinea-pig eosinophils): 55%
